System: postmenopausal women at high risk for cardiovascular events
Assay: Randomized, double-blind, placebo-controlled, multi-center Phase 3 study; observed vs expected cardiovascular events
Format: in vivo
Conditions: postmenopausal women at high risk for cardiovascular disease, compared with untreated group
From the text: The following example calculates the expected number of cardiovascular events in a population of postmenopausal women derived from historical data. The estimate of the expected rate of cardiovascular events has been determined from the event rates noted in the Women's Health Initiative (WHI), a Department of Health and Human Services National Institute of Health-sponsored study of women between 50 and 79 years of age, a similar set of women between that age were enrolled for determining the actual number of cardiovascular events as described in Example 2.
Overall, the cardiovascular event rate in women in the WHI study who had at least one cardiovascular risk factor was approximately 2-fold greater than in women without any cardiovascular risk factors. […]
The study consisted of a screening period of up to 8 weeks and a 60-month treatment period. […] Adverse cardiovascular and breast cancer events (ABC events) were assessed at each subject contact in addition to the usual assessments of safety and concomitant medications. […]
There were eight adjudicated cardiovascular events determined from this Phase 3 clinical trial after greater than 4,000 woman-years of therapy.

In the case of `C[C@]12CC[C@H]3[C@@H](CCC4=CC(=O)CC[C@@]43C)[C@@H]1CC[C@@H]2O` [testosterone, testosterone (17-β-hydroxyandrostenone)], the “risk of having a cardiovascular event (result in words)” value is reported as “decreases in the risk of having a cardiovascular event”.

— patent publication US20120022033A1, “Methods for decreasing cardiovascular risk in postmenopausal women” (BIOSANTE PHARMACEUTICALS, INC., priority 2010, published 2012)
